# Tests used:
# [1] = test system: Trichomonas vaginalis; experiment: Anti-trichomonas activity against Trichomonas vaginalis JT incubated for 48 hrs by hemocytometer based eosin exclusion assay; assay type: functional, organism-based
# [2] = test system: Trichomonas vaginalis; experiment: Anti-trichomonas activity against Trichomonas vaginalis CDC 085 incubated for 48 hrs by hemocytometer based eosin exclusion assay; assay type: functional, organism-based; conditions: CDC 085, 48 h
# [3] = test system: Trichomonas vaginalis; experiment: Anti-trichomonas activity against Trichomonas vaginalis JT assessed as release of nitric oxide at 0.027 uM preincubated for 3 hrs followed by DAF-FM DA probe addition and measured after 30 mins by confocal microscopy; assay type: functional; conditions: time 3.5 hrs
# [4] = test system: Trichomonas vaginalis; experiment: Anti-trichomonas activity against Trichomonas vaginalis CDC 085 assessed as release of nitric oxide at 0.27 uM preincubated for 3 hrs followed by DAF-FM DA probe addition and measured after 30 mins by confocal microscopy; assay type: functional; conditions: time 3.5 hrs
# [5] = test system: Trichomonas vaginalis; experiment: Anti-trichomonas activity against Trichomonas vaginalis G3 incubated for 24 hrs by hemocytometer counting method; assay type: functional, organism-based; conditions: G3, 24 h
# [6] = test system: Tritrichomonas foetus; experiment: Anti-trichomonas activity against Trichomonas foetus C1 incubated for 24 hrs by hemocytometer counting method; assay type: functional, organism-based; conditions: C1, 24 h
# [7] = test system: Tritrichomonas foetus; experiment: Anti-trichomonas activity against Trichomonas foetus D1 incubated for 24 hrs by hemocytometer counting method; assay type: functional, organism-based; conditions: D1, 24 h
# [8] = test system: Escherichia coli; experiment: Antibacterial activity against Escherichia coli by microbroth dilution method; assay type: functional
# [9] = test system: Enterococcus faecalis; experiment: Antibacterial activity against Enterococcus faecalis by microbroth dilution method; assay type: functional
# [10] = test system: Pseudomonas aeruginosa; experiment: Antibacterial activity against Pseudomonas aeruginosa ATCC 27853 by microbroth dilution method; assay type: functional
# [11] = test system: Acinetobacter baumannii; experiment: Antibacterial activity against Acinetobacter baumannii by microbroth dilution method; assay type: functional
# [12] = test system: Candida parapsilosis; experiment: Antimicrobial activity against Candida parapsilosis ATCC 22019; assay type: functional; conditions: Lodderomyces parapsilosis
# [13] = test system: Candida albicans; experiment: Antimicrobial activity against Candida albicans ATCC 90023; assay type: functional
# [14] = test system: Escherichia coli; experiment: Potency index, ratio norfloxacin MIC to test compound MIC for antibacterial activity against Escherichia coli; assay type: functional
# [15] = test system: Enterococcus faecalis; experiment: Potency index, ratio norfloxacin MIC to test compound MIC for antibacterial activity against Enterococcus faecalis; assay type: functional
# [16] = test system: Pseudomonas aeruginosa; experiment: Potency index, ratio norfloxacin MIC to test compound MIC for antibacterial activity against Pseudomonas aeruginosa ATCC 27853; assay type: functional
# [17] = test system: Acinetobacter baumannii; experiment: Potency index, ratio norfloxacin MIC to test compound MIC for antibacterial activity against Acinetobacter baumannii; assay type: functional
# [18] = test system: Clostridium sporogenes; experiment: Antimicrobial activity against Clostridium sporogenes ATCC 19404 incubated for 24 hrs by broth microdilution method; assay type: functional
# [19] = test system: Escherichia coli; experiment: Antibacterial activity against Escherichia coli ATCC 8739 incubated for 24 hrs by broth microdilution method; assay type: functional
# [20] = test system: Staphylococcus aureus; experiment: Antibacterial activity against Staphylococcus aureus ATCC 6538P incubated for 24 hrs by broth microdilution method; assay type: functional
# [21] = test system: Clostridium perfringens; experiment: Antibacterial activity against Clostridium perfringens ATCC 13124 incubated for 48 hrs under anaerobic condition by MTT assay; assay type: functional
# [22] = test system: Leishmania braziliensis; experiment: Antileishmanial activity against promastigote form of Leishmania braziliensis MHOM/BR/75/M2903 measured for 7 days by cell counting method; assay type: functional; conditions: MHOM/BR/75/M2903, 168 h, time 7 day
# [23] = test system: Leishmania mexicana; experiment: Antileishmanial activity against promastigote form of Leishmania mexicana MHOM/BZ/82/Bel21 measured for 7 days by cell counting method; assay type: functional; conditions: MHOM/BZ/82/Bel21, 168 h, time 7 day
# [24] = test system: Entamoeba histolytica; experiment: Antiamoebic activity against Entamoeba histolytica HK9 ATCC 30015 incubated for 72 hrs by trypan blue staining based assay; assay type: functional, organism-based; conditions: ATCC 30015, 72 h
# [25] = test system: Giardia intestinalis; experiment: Antigiardial activity against Giardia intestinalis WB ATCC 30957 incubated for 72 hrs by trypan blue staining based assay; assay type: functional, organism-based; conditions: Giardia duodenalis, WB ATCC 30957, 72 h
# [26] = test system: Trichomonas vaginalis; experiment: Anti-trichomonas activity against Trichomonas vaginalis GT3 incubated for 48 hrs; assay type: functional, organism-based; conditions: GT3, 48 h
# [27] = test system: Trichomonas vaginalis; experiment: Anti-trichomonas activity against Trichomonas vaginalis JT assessed as release of H2O2 at 0.229 uM preincubated for 3 hrs followed by DCFH-DA probe addition and measured after 30 mins by confocal microscopy; assay type: functional; conditions: time 3.5 hrs
# [28] = test system: Trichomonas vaginalis; experiment: Anti-trichomonas activity against Trichomonas vaginalis JT assessed as release of superoxide radical at 0.229 uM preincubated for 3 hrs followed by Dihydroethidium probe addition and measured after 30 mins by confocal microscopy; assay type: functional; conditions: time 3.5 hrs
# [29] = Selectivity index, ratio of CC50 for African green monkey Vero cells to IC50 for antigiardial activity against Giardia intestinalis MSS:0696:1; assay type: toxicity; conditions: read-out: Ratio CC50/IC50
# [30] = Selectivity index, ratio of CC50 for African green monkey Vero cells to IC50 for antigiardial activity against Trichomonas vaginalis GT3; assay type: toxicity; conditions: read-out: Ratio CC50/IC50
compound,measurement,setting,value
Cc1ncc([N+](=O)[O-])n1CCCl,IC50,[1],0.006 µM
same,IC50,[2],0.24 µM
same,Activity,[3],9000 a.u.
same,Activity,[4],9000 a.u.
Cc1ncc([N+](=O)[O-])n1CCn1cc(CN2C(=O)/C(=N\NC(N)=S)c3ccccc32)nn1,IC50,[5],2.6 µM
same,IC50,[6],0.6 µM
same,IC50,[7],0.6 µM
Cc1ncc([N+](=O)[O-])n1CC(O)CN1CCN(S(=O)(=O)c2ccc(N)cc2)CC1 (configuration not stated),MIC,[8],19 µM
same,MIC,[9],75 µM
same,MIC,[10],38 µM
same,MIC,[11],75 µM
same,MIC,[12],75 µM
same,MIC,[13],75 µM
same,Ratio,[14],84
same,Ratio,[15],11
same,Ratio,[16],11
same,Ratio,[17],11
Cc1ncc([N+](=O)[O-])n1CCO [METRONIDAZOLE],MIC,[18],42.9 µM
same,MIC,[19],5480 µM
same,MIC,[20],2050 µM
same,MIC,[21],0.0058 µM
same,LC50,[22],> 1000 µM
same,LC50,[23],> 1000 µM
same,IC50,[24],5.2 µM
same,IC50,[25],5.7 µM
same,IC50,[1],0.068 µM
same,IC50,[2],0.49 µM
same,IC50,[26],0.93 µM
same,Activity,[27],1800000 a.u.
same,Activity,[28],350000 a.u.
same,selectivity ratio,[29],> 22
same,selectivity ratio,[30],> 107

# — ChEMBL document CHEMBL4813920, “Metronidazole-conjugates: A comprehensive review of recent developments towards synthesis and medicinal perspective” (Eur J Med Chem, 2021)
